± gives the expanded uncertainty stated by the source.
Assay: xn = mol fraction of the nth substance listed
Details: 100 kPa, Liquid; for speed of sound: Frequency=3 MHz, Single path-length method; for mass density: Vibrating tube method

CCC(O)CO (stereo not given) [1,2-butanediol] + CCCC(=O)OCC
Details | mass density [kg/m3] | speed of sound [m/s]
298.15 K, x2 = 0 | 998.56 ± 2 | 1452.5 ± 1.4
298.15 K, x2 = 0.1011 | 986 ± 2 | 1424.2 ± 1.4
298.15 K, x2 = 0.2032 | 973.31 ± 2 | 1395.5 ± 1.3
298.15 K, x2 = 0.3034 | 960.87 ± 2 | 1367.4 ± 1.2
298.15 K, x2 = 0.4004 | 948.81 ± 2 | 1340.2 ± 1.2
298.15 K, x2 = 0.5064 | 935.64 ± 2 | 1310.5 ± 1.1
298.15 K, x2 = 0.6021 | 923.76 ± 2 | 1283.6 ± 1.1
298.15 K, x2 = 0.7043 | 911.06 ± 2 | 1254.9 ± 1.1
298.15 K, x2 = 0.8009 | 899.06 ± 2 | 1227.9 ± 1
298.15 K, x2 = 0.9012 | 886.59 ± 2 | 1199.7 ± 1
303.15 K, x2 = 0 | 994.75 ± 2 | 1437.9 ± 1.4
303.15 K, x2 = 0.1011 | 982.02 ± 2 | 1408.9 ± 1.4
303.15 K, x2 = 0.2032 | 969.16 ± 2 | 1379.6 ± 1.3
303.15 K, x2 = 0.3034 | 956.55 ± 2 | 1350.9 ± 1.2
303.15 K, x2 = 0.4004 | 944.33 ± 2 | 1323 ± 1.2
303.15 K, x2 = 0.5064 | 930.98 ± 2 | 1292.6 ± 1.1
303.15 K, x2 = 0.6021 | 918.93 ± 2 | 1265.2 ± 1.1
303.15 K, x2 = 0.7043 | 906.06 ± 2 | 1235.8 ± 1.1
303.15 K, x2 = 0.8009 | 893.9 ± 2 | 1208.1 ± 1
303.15 K, x2 = 0.9012 | 881.27 ± 2 | 1179.3 ± 1
308.15 K, x2 = 0 | 990.92 ± 2 | 1423.3 ± 1.4
308.15 K, x2 = 0.1011 | 978.03 ± 2 | 1393.7 ± 1.4
308.15 K, x2 = 0.2032 | 965.01 ± 2 | 1363.7 ± 1.3
308.15 K, x2 = 0.3034 | 952.23 ± 2 | 1334.3 ± 1.2
308.15 K, x2 = 0.4004 | 939.86 ± 2 | 1305.9 ± 1.2
308.15 K, x2 = 0.5064 | 926.34 ± 2 | 1274.8 ± 1.1
308.15 K, x2 = 0.6021 | 914.14 ± 2 | 1246.7 ± 1.1
308.15 K, x2 = 0.7043 | 901.11 ± 2 | 1216.7 ± 1.1
308.15 K, x2 = 0.8009 | 888.79 ± 2 | 1188.4 ± 1
308.15 K, x2 = 0.9012 | 876 ± 2 | 1159 ± 1
313.15 K, x2 = 0 | 987.11 ± 2 | 1408.7 ± 1.4
313.15 K, x2 = 0.1011 | 974.05 ± 2 | 1378.4 ± 1.4
313.15 K, x2 = 0.2032 | 960.87 ± 2 | 1347.8 ± 1.3
313.15 K, x2 = 0.3034 | 947.93 ± 2 | 1317.8 ± 1.2
313.15 K, x2 = 0.4004 | 935.41 ± 2 | 1288.7 ± 1.2
313.15 K, x2 = 0.5064 | 921.72 ± 2 | 1256.9 ± 1.1
313.15 K, x2 = 0.6021 | 909.36 ± 2 | 1228.3 ± 1.1
313.15 K, x2 = 0.7043 | 896.16 ± 2 | 1197.6 ± 1.1
313.15 K, x2 = 0.8009 | 883.69 ± 2 | 1168.7 ± 1
313.15 K, x2 = 0.9012 | 870.74 ± 2 | 1138.6 ± 1
318.15 K, x2 = 0 | 983.28 ± 2 | 1394.1 ± 1.4
318.15 K, x2 = 0.1011 | 970.05 ± 2 | 1363.2 ± 1.4
318.15 K, x2 = 0.2032 | 956.7 ± 2 | 1331.9 ± 1.3
318.15 K, x2 = 0.3034 | 943.59 ± 2 | 1301.2 ± 1.2
318.15 K, x2 = 0.4004 | 930.9 ± 2 | 1271.5 ± 1.2
318.15 K, x2 = 0.5064 | 917.03 ± 2 | 1239.1 ± 1.1
318.15 K, x2 = 0.6021 | 904.51 ± 2 | 1209.8 ± 1.1
318.15 K, x2 = 0.7043 | 891.14 ± 2 | 1178.5 ± 1.1
318.15 K, x2 = 0.8009 | 878.51 ± 2 | 1148.9 ± 1
318.15 K, x2 = 0.9012 | 865.39 ± 2 | 1118.2 ± 1
323.15 K, x2 = 0 | 979.46 ± 2 | 1379.5 ± 1.4
323.15 K, x2 = 0.1011 | 966.07 ± 2 | 1347.9 ± 1.4
323.15 K, x2 = 0.2032 | 952.55 ± 2 | 1316 ± 1.3
323.15 K, x2 = 0.3034 | 939.28 ± 2 | 1284.7 ± 1.2
323.15 K, x2 = 0.4004 | 926.44 ± 2 | 1254.4 ± 1.2
323.15 K, x2 = 0.5064 | 912.4 ± 2 | 1221.3 ± 1.1
323.15 K, x2 = 0.6021 | 899.72 ± 2 | 1191.4 ± 1.1
323.15 K, x2 = 0.7043 | 886.19 ± 2 | 1159.4 ± 1.1
323.15 K, x2 = 0.8009 | 873.4 ± 2 | 1129.2 ± 1
323.15 K, x2 = 0.9012 | 860.11 ± 2 | 1097.9 ± 1

From the NIST ThermoML archive (doi:10.1016/j.jct.2019.05.002)
